Assay results from PMC4904262 (ACS Medicinal Chemistry Letters, 2016).
Where two headings read alike, the source gives them in different places.

Assays:
WNT signaling [1] = conditions: read-out: 7dF3 IC50; Figure 1; cited from earlier work
CDK19 = conditions: read-out: CDK19 IC50; Figure 1; cited from earlier work
[2] = mouse
aldehyde oxidase [3] = target: T1, aldehyde oxidase (Homo sapiens, UniProt Q06278); assay: in vitro; conditions: cytosol
in vitro [4] = conditions: human, microsomes
aldehyde oxidase [5] = target: T1, aldehyde oxidase; conditions: for % of parent compd remaining after 45 min: human, cytosol, 0.75 h, 1 µM
in vitro [6] = conditions: human, Caco-2
in vitro [7] = conditions: mouse, microsomes
in vitro [8] = conditions: rat, microsomes
[9] = human
WNT signaling [10] = conditions: for fold less active in the cell-based assay: relative to 4; for drop off in the cell-based assay: cell-based versus CDK8 affinity
WNT signaling [11] = assay: cells; conditions: 7dF3, read-out: 7dF3 IC50
Caco-2 = conditions: human
CDK8 = CDK8 (Homo sapiens, UniProt P49336); assay type: binding; conditions: versus parent analogue
Chain of CDK8 (P49336 whole entry): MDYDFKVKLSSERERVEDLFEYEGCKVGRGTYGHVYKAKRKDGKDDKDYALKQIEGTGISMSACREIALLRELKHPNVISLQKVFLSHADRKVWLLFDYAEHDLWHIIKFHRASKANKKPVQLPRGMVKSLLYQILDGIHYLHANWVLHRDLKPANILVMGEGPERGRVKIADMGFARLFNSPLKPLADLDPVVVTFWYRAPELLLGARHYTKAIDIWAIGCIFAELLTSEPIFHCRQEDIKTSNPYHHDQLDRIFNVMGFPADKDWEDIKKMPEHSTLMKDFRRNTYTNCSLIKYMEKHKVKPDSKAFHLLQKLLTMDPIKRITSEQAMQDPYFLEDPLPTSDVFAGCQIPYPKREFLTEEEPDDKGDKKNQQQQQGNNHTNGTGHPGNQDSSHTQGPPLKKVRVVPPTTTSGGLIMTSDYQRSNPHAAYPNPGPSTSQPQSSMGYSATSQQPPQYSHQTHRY
Chain of CDK8 (P24863 whole entry, further chain): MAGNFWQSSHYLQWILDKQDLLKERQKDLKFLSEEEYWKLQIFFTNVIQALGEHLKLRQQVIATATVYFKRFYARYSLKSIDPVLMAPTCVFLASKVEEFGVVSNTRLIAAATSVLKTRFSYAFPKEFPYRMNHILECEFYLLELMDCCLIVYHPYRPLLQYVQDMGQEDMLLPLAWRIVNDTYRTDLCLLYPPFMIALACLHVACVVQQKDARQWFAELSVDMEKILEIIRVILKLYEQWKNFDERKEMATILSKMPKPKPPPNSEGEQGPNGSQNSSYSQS

T1 sequence (Q06278 whole entry): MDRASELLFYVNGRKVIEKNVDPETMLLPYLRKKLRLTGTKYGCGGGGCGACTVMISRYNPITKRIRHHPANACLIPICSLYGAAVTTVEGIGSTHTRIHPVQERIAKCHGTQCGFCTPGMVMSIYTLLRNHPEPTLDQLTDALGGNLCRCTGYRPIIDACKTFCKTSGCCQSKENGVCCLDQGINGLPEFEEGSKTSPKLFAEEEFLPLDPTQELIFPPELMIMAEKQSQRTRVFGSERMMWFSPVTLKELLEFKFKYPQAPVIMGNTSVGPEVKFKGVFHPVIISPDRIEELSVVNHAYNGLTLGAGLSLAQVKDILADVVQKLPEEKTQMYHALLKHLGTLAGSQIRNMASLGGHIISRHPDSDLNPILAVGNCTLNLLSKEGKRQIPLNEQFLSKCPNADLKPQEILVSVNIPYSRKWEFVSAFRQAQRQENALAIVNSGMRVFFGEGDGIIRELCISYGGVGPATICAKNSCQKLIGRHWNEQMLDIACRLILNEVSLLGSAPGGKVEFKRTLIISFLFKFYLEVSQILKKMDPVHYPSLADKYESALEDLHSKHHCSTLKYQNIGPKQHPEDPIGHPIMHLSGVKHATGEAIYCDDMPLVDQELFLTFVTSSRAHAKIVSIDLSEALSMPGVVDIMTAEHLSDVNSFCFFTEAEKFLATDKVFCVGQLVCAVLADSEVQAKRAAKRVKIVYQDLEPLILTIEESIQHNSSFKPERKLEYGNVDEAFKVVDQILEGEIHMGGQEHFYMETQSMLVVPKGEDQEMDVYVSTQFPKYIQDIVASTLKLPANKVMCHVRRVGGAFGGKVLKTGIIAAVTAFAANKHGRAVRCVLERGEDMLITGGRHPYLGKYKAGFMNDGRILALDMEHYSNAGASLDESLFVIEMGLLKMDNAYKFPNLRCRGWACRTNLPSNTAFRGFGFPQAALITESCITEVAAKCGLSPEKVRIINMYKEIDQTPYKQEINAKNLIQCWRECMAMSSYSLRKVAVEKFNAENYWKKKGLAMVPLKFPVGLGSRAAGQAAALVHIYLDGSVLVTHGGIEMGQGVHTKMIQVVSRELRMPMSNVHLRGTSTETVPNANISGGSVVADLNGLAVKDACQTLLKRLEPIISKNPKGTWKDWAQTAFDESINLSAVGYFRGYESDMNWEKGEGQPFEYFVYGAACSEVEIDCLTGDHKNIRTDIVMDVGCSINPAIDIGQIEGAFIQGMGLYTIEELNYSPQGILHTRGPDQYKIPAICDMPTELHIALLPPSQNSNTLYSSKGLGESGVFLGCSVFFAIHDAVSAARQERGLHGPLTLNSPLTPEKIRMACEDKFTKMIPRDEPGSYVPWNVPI

Structure (SMILES)	microsomal CLint at 1 µM (in vitro [4]) [µL/min/mg]	microsomal CLint at 1 µM (in vitro [7]) [µL/min/mg]	microsomal CLint at 1 µM (in vitro [8]) [µL/min/mg]	% of parent compd remaining after 45 min (aldehyde oxidase [5]) [%]	other results
Cn1cc(-c2ccc(-c3cncc(Cl)c3N3CCC4(CCNC4=O)CC3)cc2)cn1 [Compound 1]	–	–	–	–	IC50 (WNT signaling [1]): 5 ± 1 nM; IC50 (CDK19): 6 ± 1 nM
Cn1ncc2cc(-c3cnc(N)c(Cl)c3N3CCC4(CCNC4=O)CC3)ccc21 [Compound 2]	–	–	–	–	IC50 (WNT signaling [1]): 11.8 ± 17.9 nM; IC50 (CDK19): 2.6 ± 0.4 nM
CNC(=O)c1ccc2cncc(-c3ccc4c(c3)CS(=O)(=O)N4C)c2n1 [Compound 7]	15	76	142	–	F ([2]; Balb/C, in vivo): 16%; Vss ([2]; Balb/C, in vivo): 2.7 L/kg; in vivo clearance [2]: exceeded liver blood flow; CLint scaled at 1 µM (aldehyde oxidase [3]): 598 mL/min/kg; AO substrate (Enzyme assay) (aldehyde oxidase [5]): Yes; Papp A→B (in vitro [6]): 38.3 ×10⁻⁶ cm/s; efflux ratio (in vitro [6]): 1.02
CNC(=O)c1ccc2cncc(-c3ccc4c(c3)CS(=O)(=O)N4)c2n1 [Compound 8]	–	23	21	20	in vivo clearance [2]: exceeded liver blood flow; Cl ([2]; in vivo): Not measurable; F ([2]; in vivo): Not measurable; Vd ([2]; in vivo): Not measurable; microsomal CLint (in vitro [4]): < 10 µL/min/mg; Papp A→B (in vitro [6]): 5.94 ×10⁻⁶ cm/s; efflux ratio (in vitro [6]): 7.26; main metabolite [9]: oxidation to give the C5-OH compound 37 as the main metabolite
COC1CN(C(=O)c2ccc3cncc(-c4ccc(-c5cnn(C)c5)cc4)c3n2)C1 [Compound 13]	35	95	327	0	AO substrate (Enzyme assay) (aldehyde oxidase [5]): Yes
Cn1cc(-c2ccc(-c3cncc4ccc(C(=O)N5CCNCC5)nc34)cc2)cn1 [Compound 17]	36	15	525	–	Vss ([2]; Balb/C, in vivo): 5.8 L/kg; in vivo clearance [2]: exceeded liver blood flow
CC(=O)Nc1ccc2cncc(-c3ccc(-c4cnn(C)c4)cc3)c2n1 [Compound 18]	26	168	247	–	fold less active in the cell-based assay (WNT signaling [10]): 10 fold
Cn1cc(-c2ccc(-c3cncc4ccc(N5CCCC5=O)nc34)cc2)cn1 [Compound 19]	143	392	253	–	CLint scaled at 1 µM (aldehyde oxidase [3]): 418 mL/min/kg; fold less active in the cell-based assay (WNT signaling [10]): 10 fold
Cn1cc(-c2ccc(-c3cncc4ccc(-c5ncco5)nc34)cc2)cn1 [Compound 25]	48	200	796	0	CLint scaled at 1 µM (aldehyde oxidase [3]): 367 mL/min/kg
Cn1cc(-c2ccc(-c3cncc4ccc(-c5nccn5C)nc34)cc2)cn1 [Compound 26]	335	661	–	–	CLint scaled at 1 µM (aldehyde oxidase [3]): > 1000 mL/min/kg; AO substrate (Enzyme assay) (aldehyde oxidase [5]): Yes; microsomal CLint (in vitro [8]): > 1000 µL/min/mg
CNC(=O)c1ccc2cncc(-c3ccc(-c4cnn(C)c4)cc3)c2c1 [Compound 27]	27	275	–	0	–
Cn1cc(-c2ccc(-c3cncc4ccc(C(=O)NC5CC5)cc34)cc2)cn1 [Compound 28]	31	141	98	–	AO substrate (Enzyme assay) (aldehyde oxidase [5]): Yes
COC1CN(C(=O)c2ccc3cncc(-c4ccc(-c5cnn(C)c5)cc4)c3c2)C1 [Compound 29]	56	403	337	1	AO substrate (Enzyme assay) (aldehyde oxidase [5]): Yes
Cn1cc(-c2ccc(-c3cncc4ccc(C(=O)N5CC(F)(F)C5)cc34)cc2)cn1 [Compound 30]	470	321	207	0	–
CC(=O)Nc1ccc2cncc(-c3ccc(-c4cnn(C)c4)cc3)c2c1 [Compound 31]	26	200	90	–	AO substrate (Enzyme assay) (aldehyde oxidase [5]): Yes
Cn1cc(-c2ccc(-c3cncc4ccc(-c5ncco5)cc34)cc2)cn1 [Compound 32]	81	129	96	3	–
Cn1cc(-c2ccc(-c3cncc4ccc(N5CCOC5=O)cc34)cc2)cn1 [Compound 34]	66	380	102	–	AO substrate (Enzyme assay) (aldehyde oxidase [5]): Yes
Cn1cc(-c2ccc(-c3cncc4ccc(N5CCCS5(=O)=O)cc34)cc2)cn1 [Compound 35]	54	213	81	–	drop off in the cell-based assay (WNT signaling [10]): 7 fold

Structure (SMILES)	microsomal CLint at 1 µM (in vitro [4]) [µL/min/mg]	microsomal CLint at 1 µM (in vitro [7]) [µL/min/mg]	microsomal CLint at 1 µM (in vitro [8]) [µL/min/mg]	% of parent compd remaining after 45 min (aldehyde oxidase [5]) [%]	other results
Cn1cc(-c2ccc(-c3cncc4ccc(S(N)(=O)=O)cc34)cc2)cn1 [Compound 36]	47	125	220	–	drop off in the cell-based assay (WNT signaling [10]): 12 fold
CNC(=O)c1ccc2c(N)ncc(-c3ccc4c(c3)CS(=O)(=O)N4)c2n1 [Compound 37]	–	–	–	100	IC50 (WNT signaling [11]): 9600 ± 2430 nM
COC1CN(C(=O)c2ccc3cncc(-c4ccc(-c5cnn(CC(C)(C)O)c5)cc4)c3n2)C1 [Compound 38]	–	–	–	0	IC50 (WNT signaling [11]): 2.8 ± 0.7 nM
COC1CN(C(=O)c2ccc3cncc(-c4ccc5c(cnn5CC(C)(C)O)c4)c3n2)C1 [Compound 39]	–	–	–	0	IC50 (WNT signaling [11]): 225 ± 76 nM
COC1CN(C(=O)c2ccc3cncc(-c4ccc5nn(CC(C)(C)O)cc5c4)c3n2)C1 [Compound 40]	–	–	–	0	IC50 (WNT signaling [11]): 17.9 ± 5.5 nM
COC1CN(C(=O)c2ccc3cncc(-c4ccc(-c5cnn(CC(C)(C)O)c5)cc4)c3c2)C1 [Compound 41]	–	–	–	0	IC50 (WNT signaling [11]): 13.2 ± 15.2 nM
CC(C)(O)Cn1cc(-c2ccc(-c3cncc4ccc(C(N)=O)cc34)cc2)cn1 [Compound 42]	–	–	–	7	IC50 (WNT signaling [11]): 0.6 ± 0.2 nM
COC1CN(C(=O)c2ccc3cncc(-c4ccc5c(cnn5CC(C)(C)O)c4)c3c2)C1 [Compound 43]	–	–	–	2	IC50 (WNT signaling [11]): 921 ± 148 nM
COC1CN(C(=O)c2ccc3cncc(-c4ccc5nn(CC(C)(C)O)cc5c4)c3c2)C1 [Compound 44]	–	–	–	0	IC50 (WNT signaling [11]): 92.7 ± 41.1 nM
CNC(=O)c1ccc2c(OC)ncc(-c3ccc4c(c3)CS(=O)(=O)N4)c2n1 [Compound 45]	–	–	–	–	IC50 (WNT signaling [11]): > 30000 nM
CNC(=O)c1ccc2c(N)ncc(-c3ccc4c(c3)CS(=O)(=O)N4C)c2n1 [Compound 48]	–	–	–	–	Cl ([2]; Balb/C, in vivo): 213 mL/min/kg; F ([2]; Balb/C, in vivo): 29%; Vss ([2]; Balb/C, in vivo): 5.64 L/kg; CLint scaled at 1 µM (aldehyde oxidase [3]): 15 mL/min/kg; IC50 (WNT signaling [11]): 9.3 ± 2.3 nM; microsomal CLint (in vitro [4]): 18 µL/min/mg; AO substrate (Enzyme assay) (aldehyde oxidase [5]): No; microsomal CLint (in vitro [7]): 94 µL/min/mg; microsomal CLint (in vitro [8]): 24 µL/min/mg
Cn1cc(-c2ccc(-c3cnc(N)c4ccc(C(=O)N5CCNCC5)nc34)cc2)cn1 [Compound 49]	–	36	–	–	Cl ([2]; Balb/C, in vivo): 58.5 mL/min/kg; F ([2]; Balb/C, in vivo): <5%; Vss ([2]; Balb/C, in vivo): 2.49 L/kg; CLint scaled at 1 µM (aldehyde oxidase [3]): < 4.2 mL/min/kg; Caco-2 ER (Caco-2): 145; Caco-2 PappA-B (Caco-2): 0.96 × 10^–6 cm/s; microsomal CLint (in vitro [4]): < 10 µL/min/mg; microsomal CLint (in vitro [8]): < 10 µL/min/mg
Cn1cc(-c2ccc(-c3cnc(N)c4ccc(-c5nccn5C)nc34)cc2)cn1 [Compound 57]	–	–	–	–	drop in CDK8 affinity (CDK8): 225 fold
COC1(C)CN(C(=O)c2ccc3c(N)ncc(-c4ccc(-c5cnn(C)c5)cc4)c3c2)C1 [Compound 60]	64	26	17	–	Caco-2 ER (Caco-2): 7.2; Caco-2 PappA-B (Caco-2): 25.2 × 10^–6 cm/s
Cn1cc(-c2ccc(-c3cnc(N)c4ccc(C(=O)N5CC(F)(F)C5)cc34)cc2)cn1 [Compound 61]	123	78	17	–	Caco-2 ER (Caco-2): 3.8; Caco-2 PappA-B (Caco-2): 39.7 × 10^–6 cm/s
Cn1cc(-c2ccc(-c3cnc(N)c4ccc(C(=O)N5CC(C)(F)C5)cc34)cc2)cn1 [Compound 62]	76	43	28	–	Caco-2 ER (Caco-2): 3.4; Caco-2 PappA-B (Caco-2): 25.8 × 10^–6 cm/s
Cn1cc(-c2ccc(-c3cnc(N)c4ccc(C(=O)NC5CC5)cc34)cc2)cn1 [Compound 64]	16	39	22	–	Caco-2 ER (Caco-2): 13.2; Caco-2 PappA-B (Caco-2): 32.5 × 10^–6 cm/s; AO substrate (Enzyme assay) (aldehyde oxidase [5]): No
Cn1cc(-c2ccc(-c3cnc(N)c4ccc(N5CCOC5=O)cc34)cc2)cn1 [Compound 65]	14	66	19	–	Caco-2 ER (Caco-2): 16.2; Caco-2 PappA-B (Caco-2): 20.6 × 10^–6 cm/s; AO substrate (Enzyme assay) (aldehyde oxidase [5]): No
